In patent publication US10280167B2, “Purine derivatives for the treatment of viral infections” (JANSSEN SCIENCES IRELAND UC, priority 2011, dated 2019):

Legend:
Assay type in all cases: cell-based
human TLR7 [1] = molecular target: T1, human TLR7 (Homo sapiens (Human), UniProt Q9NYK1); test: Reporter assay for TLR7 activity, HEK293 transiently transfected with wild type TLR7 and NFκB-luc; conditions: lowest effective concentration; 48 h transfection
human TLR7 dIRR2 mutant [2] = test: Reporter assay for TLR7 activity, HEK293 transfected with mutant TLR7 (dIRR2 deletion) and NFκB-luc; conditions: lowest effective concentration; 24 h transfection
Method: (§1) Reporter Assays for Assessment of TLR7 Activity (24 h)
(§2) The ability of compounds to activate human TLR7 was assessed in a cellular reporter assay using HEK293 cells transiently transfected with a TLR7 or TLR8 expression vector and NFκB-luc reporter construct. In one instance the TLR expression construct expresses the respective wild type sequence or a mutant sequence comprising a deletion in the second leucine-rich repeat (dIRR2) of the TLR.
(§3) Briefly, HEK293 cells were grown in culture medium (DMEM supplemented with 10% FCS and 2 mM Glutamine). For transfection of cells in 10 cm dishes, cells were detached with Trypsin-EDTA, transfected with a mix of CMV-TLR7 or TLR8 plasmid (750 ng), NFκB-luc plasmid (375 ng) and a transfection reagent and incubated 24 hours or 48 hours respectively at 37° C. in a humidified 5% CO2 atmosphere. Transfected cells were then detached with Trypsin-EDTA, washed in PBS and resuspended in medium to a density of 1.67×10^5 cells/mL. Thirty microliters of cells were then dispensed into each well in 384-well plates, where 10 μL of compound in 4% DMSO was already present. Following 6 hours incubation at 37° C., 5% CO2, the luciferase activity was determined by adding 15 μl of Steady Lite Plus substrate (Perkin Elmer) to each well and readout performed on a ViewLux ultraHTS microplate imager (Perkin Elmer). Dose response curves were generated from measurements performed in quadruplicates. Lowest effective concentrations (LEC) values, defined as the concentration that induces an effect which is at least two fold above the standard deviation of the assay, were determined for each compound. Compound toxicity was determined in parallel using a similar dilution series of compound with 30 μL per well of cells transfected with the CMV-TLR7 construct alone (1.67×10^5 cells/mL), in 384-well plates. Cell viability was measured after 6 hours incubation at 37° C., 5% CO2 by adding 15 μL of ATP lite (Perkin Elmer) per well and reading on a ViewLux ultraHTS microplate imager (Perkin Elmer). Data was reported as CC50.

[3] = tested on: Huh-7 luc/neo HCV replicon cells with conditioned media from PBMC; test: Interferon production in human PBMC (PBMC-HUH7_EC50), HCV replicon readout with conditioned media; conditions: Homo sapiens, Huh-7; concentration applied to PBMCs giving 50% reduction of replicon luciferase activity
Method: Measurement of Interferon Production in Human PBMC (PBMC-HUH7_EC50)
Activation of human TLR7 results in robust production of interferon by plasmacytoid dendritic cells present in human blood. The potential of compounds to induce interferon was evaluated by looking at the antiviral activity in the HCV replicon system upon incubation with conditioned media from peripheral blood mononuclear cells (PBMC). The HCV replicon assay is based on a bicistronic expression construct, as described by Lohmann et al. (Science (1999) 285: 110-113; Journal of Virology (2003) 77: 3007-15 3019) with modifications described by Krieger et al. (Journal of Virology (2001) 75: 4614-4624). The assay utilized the stably transfected cell line Huh-7 luc/neo harboring an RNA encoding a bicistronic expression construct comprising the wild type NS3-NS5B regions of HCV type 1b translated from an Internal Ribosome Entry Site (IRES) from encephalomyocarditis virus (EMCV), preceded by a reporter gene (Firefly-luciferase) and a selectable marker gene (neoR, neomycine phosphotransferase). The construct is flanked by 5′ and 3′ NTRs (non-translated regions) from HCV type 1b. Continued culture of the replicon cells in the presence of G418 (neoR) is dependent on the replication of the HCV RNA. The stably transfected replicon cells that replicate HCV RNA autonomously and to high levels, encoding inter alia luciferase, were used for profiling of the conditioned cell culture media. Briefly, PBMCs were prepared from buffy coats of at least two donors using a standard Ficoll centrifugation protocol. Isolated PBMCs were resuspended in RPMI medium supplemented with 10% human AB serum and 2×10^5 cells/well were dispensed into 384-well plates containing compounds (70 μL total volume). After overnight incubation, […] was transferred to 384-well plates containing 2.2×10^3 replicon cells/well in 30 μL (plated the day before). Following 24 hours of incubation, replication was measured by assaying luciferase activity using 40 μL/well Steady Lite Plus substrate (Perkin Elmer) and measured with ViewLux ultraHTS microplate imager (Perkin Elmer). The inhibitory activity of each compound on the Huh7-luc/neo cells were reported as EC50 values, defined as the compound concentration applied to the PBMCs resulting in a 50% reduction of luciferase activity which in turn indicates the degree of replication of the replicon RNA on transfer of a defined amount of PBMC culture medium. Recombinant interferon α-2a (Roferon-A) was used as a standard control compound.

human TLR7 dIRR2 mutant [4] = test: Reporter assay for TLR7 activity, HEK293 transfected with mutant TLR7 (dIRR2 deletion) and NFκB-luc; conditions: lowest effective concentration; 48 h transfection
[5] = tested on: HEK-ISRE-luc cells with conditioned media from PBMC; test: Interferon production in human PBMC (PBMC HEK-ISRE-luc LEC); conditions: Homo sapiens, PBMC; lowest effective concentration; read-out: PBMC HEK-ISRE-luc (LEC)
Method: Measurement of Interferon Production in Human PBMC (PBMC HEK-ISRE-Luc LEC)
Activation of human TLR7 results in robust production of interferon by plasmacytoid dendritic cells present in human blood. The potential of compounds to induce interferon was evaluated by determination of interferon in the conditioned media from peripheral blood mononuclear cells (PBMC). The presence of interferon in the samples was determined, using an interferon reporter cell line stably expressing an interferon-stimulated responsive elements (ISRE)-luc reporter construct. The ISRE element with sequence GAAACTGAAACT (SEQ ID NO: 1) is highly responsive to the STAT1-STAT2-IRF9 transcription factor, which becomes activated upon binding of IFN-I to the IFN receptor. Briefly, PBMCs were prepared from buffy coats of at least two donors using a standard Ficoll centrifugation protocol. Isolated PBMCs were resuspended in RPMI medium supplemented with 10% human AB serum and 2×10^5 cells/well were dispensed into 384-well plates containing compounds (70 μL total volume). After overnight incubation of the PBMCs with the compounds, 10 μL of supernatant was transferred to 384-well plates containing 5×10^3 HEK-ISRE-luc cells/well in 30 μL (plated the day before). Following 24 hours of incubation, activation of the ISRE elements was measured by assaying luciferase activity using 40 μL/well Steady Lite Plus substrate (Perkin Elmer) and measured with ViewLux ultraHTS microplate imager (Perkin Elmer). The stimulating activity of each compound on the HEK-ISRE-luc cells was reported as LEC. The LEC in turn indicates the degree of ISRE activation on transfer of a defined amount of PBMC culture medium.
Recombinant interferon alfa-2a (Roferon-A) was used as a standard control compound.

human TLR7 [6] = molecular target: T1, human TLR7; test: Reporter assay for TLR7 activity, HEK293 transiently transfected with wild type TLR7 and NFκB-luc; conditions: lowest effective concentration; 24 h transfection
Method: as §1, §2, §3

TLR8 = test: Reporter assay HEK293 TLR8-NFκB-luc; conditions: greater than the highest tested concentration
Method: as §2
Briefly, HEK293 cells were grown in culture medium (DMEM supplemented with 10% FCS and 2 mM Glutamine). […] Following 6 hours incubation at 37° C., 5% CO2, the luciferase activity was determined by adding 15 μl of Steady Lite Plus substrate (Perkin Elmer) to each well and readout performed on a ViewLux ultraHTS microplate imager (Perkin Elmer). […] Lowest effective concentrations (LEC) values, defined as the concentration that induces an effect which is at least two fold above the standard deviation of the assay, were determined for each compound. Compound toxicity was determined in parallel using a similar dilution series of compound with 30 μL per well of cells transfected with the CMV-TLR7 construct alone (1.67×10^5 cells/mL), in 384-well plates. Cell viability was measured after 6 hours incubation at 37° C., 5% CO2 by adding 15 μL of ATP lite (Perkin Elmer) per well and reading on a ViewLux ultraHTS microplate imager (Perkin Elmer). […]

HEK293 NFκB-luc = test: Reporter assay HEK293 NFκB-luc; conditions: greater than the highest tested concentration

T1 sequence (Q9NYK1 27-1049): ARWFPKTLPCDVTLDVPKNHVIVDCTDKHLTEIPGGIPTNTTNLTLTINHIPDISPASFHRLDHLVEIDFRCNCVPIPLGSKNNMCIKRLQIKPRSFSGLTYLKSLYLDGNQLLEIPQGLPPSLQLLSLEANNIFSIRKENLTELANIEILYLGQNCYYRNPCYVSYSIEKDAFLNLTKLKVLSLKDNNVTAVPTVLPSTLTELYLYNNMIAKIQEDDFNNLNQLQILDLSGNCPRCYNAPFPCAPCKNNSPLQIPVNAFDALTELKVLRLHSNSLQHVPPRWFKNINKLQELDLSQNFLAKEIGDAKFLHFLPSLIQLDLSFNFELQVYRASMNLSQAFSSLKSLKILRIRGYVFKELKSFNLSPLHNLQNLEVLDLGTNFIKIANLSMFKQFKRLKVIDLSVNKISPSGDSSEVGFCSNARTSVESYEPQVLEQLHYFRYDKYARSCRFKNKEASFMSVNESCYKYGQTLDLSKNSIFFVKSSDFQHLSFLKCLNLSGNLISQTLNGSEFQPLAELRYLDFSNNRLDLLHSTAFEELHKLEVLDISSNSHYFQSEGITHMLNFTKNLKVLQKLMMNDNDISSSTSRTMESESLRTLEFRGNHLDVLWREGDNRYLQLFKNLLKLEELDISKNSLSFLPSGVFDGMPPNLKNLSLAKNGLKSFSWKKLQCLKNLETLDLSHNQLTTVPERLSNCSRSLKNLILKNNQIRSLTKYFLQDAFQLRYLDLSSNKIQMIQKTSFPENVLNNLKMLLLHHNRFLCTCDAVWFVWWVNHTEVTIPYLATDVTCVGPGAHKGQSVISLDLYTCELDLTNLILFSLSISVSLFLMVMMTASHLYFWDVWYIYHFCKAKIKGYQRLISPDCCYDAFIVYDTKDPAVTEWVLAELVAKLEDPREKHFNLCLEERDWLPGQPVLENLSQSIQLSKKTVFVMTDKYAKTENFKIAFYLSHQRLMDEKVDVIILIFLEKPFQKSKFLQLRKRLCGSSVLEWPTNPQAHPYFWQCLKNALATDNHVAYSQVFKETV

SMILES	TLR7-wt_LEC 48 h (human TLR7 [1])	TLR7-dIRR2_LEC 24 h (human TLR7 dIRR2 mutant [2])	EC50 [3]	TLR7-dIRR2_LEC 48 h (human TLR7 dIRR2 mutant [4])	minimal effective concentration [5]	TLR7-wt_LEC 24 h (human TLR7 [6])	LEC on HEK293 TLR8-NFκB-luc (TLR8)	LEC on HEK293 NFκB-luc (HEK293 NFκB-luc)
Nc1nc(-c2nc(C3CC3)c[nH]2)nc2c1[nH]c(=O)n2Cc1ccccc1 [Compound 1]	8.25 µM	0.33 µM	81 nM	0.18 µM	0.064 µM	–	–	–
Nc1nc(-c2nc(-c3ccccc3)c[nH]2)nc2c1[nH]c(=O)n2Cc1ccccc1 [Compound 2]	–	1.2 µM	531 nM	–	–	4.72 µM	–	–
Nc1nc(-c2nc(C3CCCC3)c[nH]2)nc2c1[nH]c(=O)n2Cc1ccccc1 [Compound 3]	–	7.67 µM	14000 nM	–	–	>24.59 µM	–	–
Nc1nc(-c2ncc[nH]2)nc2c1[nH]c(=O)n2Cc1ccccc1 [Compound 4]	1.23 µM	0.077 µM	160 nM	0.04 µM	0.12 µM	–	–	–
Cc1[nH]c(-c2nc(N)c3[nH]c(=O)n(Cc4ccccc4)c3n2)nc1C1CC1 [Compound 5]	21.47 µM	2.2 µM	200 nM	1.13 µM	0.13 µM	–	–	–
CCc1[nH]c(-c2nc(N)c3[nH]c(=O)n(Cc4ccccc4)c3n2)nc1C1CC1 [Compound 6]	6.32 µM	0.66 µM	53 nM	0.34 µM	0.04 µM	–	> 10 µM	> 10 µM
Nc1nc(-c2nc(C3CC3)c[nH]2)nc2c1[nH]c(=O)n2CC1CCOCC1 [Compound 10]	>25 µM	18.93 µM	730 nM	10.13 µM	0.44 µM	–	–	–
Nc1nc(-c2cncnc2)nc2c1[nH]c(=O)n2Cc1ccccc1 [Compound 15]	>25 µM	10.57 µM	16900 nM	9.75 µM	–	>24.59 µM	–	–
Nc1nc(-c2ccc[nH]2)nc2c1[nH]c(=O)n2Cc1ccccc1 [Compound 18]	20.31 µM	3.23 µM	2580 nM	3.81 µM	–	>24.59 µM	–	–
